Laboratory results published in US12398154B2, “Azaquinazoline pan-KRas inhibitors” (Mirati Therapeutics, Inc., priority 2020, dated 2025).
pIC50: −log10 of the molar value.

How the values were obtained:
pERK in ASPC1 cells = assay: Inhibition of KRas phosphorylation of ERK (Cisbio HTRF pERK assay); conditions: Homo sapiens, ASPC1, read-out: Inhibition (HTRF IC50) of KRas-mediated Phosphorylation of ERK, AsPC-1
pERK in PSN1 cells = assay: as above; conditions: Homo sapiens, PSN1, 3 h, read-out: Inhibition (HTRF IC50) of KRas-mediated Phosphorylation of ERK, PSN1
KRas G12R = KRas G12R (Homo sapiens, UniProt P01116, G12R); assay: biochemical;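 further: TR-FRET displacement assay of compound binding to KRas, read after one hour at room temperature, potency from a four-parameter fit of percent-of-control values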
KRas G12R, sequence (P01116 1-169 isoform P01116-2 G12R): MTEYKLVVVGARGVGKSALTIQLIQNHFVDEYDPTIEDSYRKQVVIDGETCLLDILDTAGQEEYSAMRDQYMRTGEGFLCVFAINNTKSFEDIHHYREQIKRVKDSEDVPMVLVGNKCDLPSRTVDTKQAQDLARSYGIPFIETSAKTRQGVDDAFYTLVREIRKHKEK
Description: (§1) The ability of a compound to bind to KRas was measured using a TR-FRET displacement assay. […] After a 60-minute incubation at room temperature, the reaction was measured using a BMG LABTECH CLARIO star Plus via TR-FRET. […] The POC values were fit to a 4-parameter IC50 equation and the IC50 value reported.

pERK in MKN1 cells = assay: Inhibition of KRas phosphorylation of ERK (Cisbio HTRF pERK assay); conditions: Homo sapiens, MKN-1, 3 h, read-out: Inhibition (HTRF IC50) of KRas-mediated Phosphorylation of ERK, MKN1
Description: To harvest cells from flask using 0.05% Trypsin/EDTA solution. Add 10 mL of media to stop trypsinizing. Pipette the cells into a conical bottom 50 mL centrifuge tube and centrifuge 5 min×1000 rpm. • 2. Re-suspend the cell pellet in media, take a cell count, and then adjust the cell density using fresh media. • 3. Seed 6,000 cells into cell culture plate with 50 μL media. […] Incubate cell plate overnight in a 37° C., 5% CO2 incubator. • Compound titrations • 1. Use Tecan to complete the compound addition. Compounds start from 10 uM top, 3-fold dilution, and 10 doses. The final DMSO concentration is 0.8%. Dispensed 0.2 uM Trametinib as Min control. • 2. Incubate cell plate for 3 hrs in the incubator. • Detection with cisbio pERK HTRF kit • 1. […] At the end of the compound treatment, flick-off the media. • 3. Add 35 μL of lysis buffer per well using a Multidrop Combi. Then place on a plate agitator shaking at 300 rpm at 4° C. for 40 mins. • 4. Make up the HTRF antibody buffer. For each assay plate, mix 50 μL of d2-conjugate antibody with 950 μL of detection buffer. Similarly, mix 50 μL of Cryptate antibody with 950 μL of detection buffer. Then mix the two diluted antibodies together. • 5. Dispense 3.4 μL the antibody buffer to wells of an empty assay plate. Seal the plate and centrifuge plate 30 sec×1000 rpm. • 6. At the end of the 4° C. lysis, centrifuge the lysate plates 3 mins×1500 rpm. • 7. Use the Bravo to transfer 13.6 μL of lysate from cell culture plate to assay plate.
Then incubate assay plate for 2 hrs at room temperature. […] At the end of incubation, read plate on the Envision after centrifuging plate 30 sec× • 1000 rpm.

KRas G12V = KRas G12V (Homo sapiens, UniProt P01116, G12V); assay: biochemical;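 further: KRas binding measured by TR-FRET displacement at room temperature, IC50 fitted from percent of control values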
KRas G12V, sequence (P01116 1-169 isoform P01116-2 G12V): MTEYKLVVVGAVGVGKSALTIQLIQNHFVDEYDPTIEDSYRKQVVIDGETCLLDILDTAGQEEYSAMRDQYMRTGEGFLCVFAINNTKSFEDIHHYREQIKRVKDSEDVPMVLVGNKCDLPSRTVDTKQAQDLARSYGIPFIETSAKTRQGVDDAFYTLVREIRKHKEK
Description: as §1

KRas G12D = KRas G12D (Homo sapiens, UniProt P01116, G12D); assay: biochemical;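 further: TR-FRET displacement binding assay on KRas, read after a one-hour incubation at room temperature, IC50 fitted from percent-of-control values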
KRas G12D, sequence (P01116 1-169 isoform P01116-2 G12D): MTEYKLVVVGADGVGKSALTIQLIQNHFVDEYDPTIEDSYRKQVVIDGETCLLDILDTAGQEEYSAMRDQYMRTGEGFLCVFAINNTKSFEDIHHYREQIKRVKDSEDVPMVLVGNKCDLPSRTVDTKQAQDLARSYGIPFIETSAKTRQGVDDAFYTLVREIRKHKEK
Description: as §1

KRas G12S = KRas G12S (Homo sapiens, UniProt P01116, G12S); assay: biochemical;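 further: TR-FRET displacement binding to KRas, read after one hour incubation at room temperature, IC50 from four-parameter fit of percent of control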
KRas G12S, sequence (P01116 1-169 isoform P01116-2 G12S): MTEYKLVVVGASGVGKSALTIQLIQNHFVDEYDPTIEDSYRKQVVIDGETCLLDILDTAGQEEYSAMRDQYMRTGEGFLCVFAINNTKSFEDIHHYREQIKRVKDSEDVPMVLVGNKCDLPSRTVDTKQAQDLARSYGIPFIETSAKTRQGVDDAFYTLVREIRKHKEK
Description: as §1

KRas G12A = KRas G12A (Homo sapiens, UniProt P01116, G12A); assay: biochemical;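 further: binding to KRas measured by TR-FRET displacement after one hour at room temperature, IC50 from a four-parameter fit of percent-of-control values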
KRas G12A, sequence (P01116 1-169 isoform P01116-2 G12A): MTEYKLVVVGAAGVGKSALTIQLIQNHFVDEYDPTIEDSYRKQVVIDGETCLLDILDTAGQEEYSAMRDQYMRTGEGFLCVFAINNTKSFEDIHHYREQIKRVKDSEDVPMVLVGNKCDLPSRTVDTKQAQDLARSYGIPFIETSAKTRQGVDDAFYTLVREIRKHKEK
Description: as §1

KRas WT = KRas WT (Homo sapiens, UniProt P01116); assay: biochemical;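 further: binding to KRas read as TR-FRET displacement after a one-hour room-temperature incubation, IC50 derived from percent-of-control values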
KRas WT, sequence (P01116 1-169 isoform P01116-2): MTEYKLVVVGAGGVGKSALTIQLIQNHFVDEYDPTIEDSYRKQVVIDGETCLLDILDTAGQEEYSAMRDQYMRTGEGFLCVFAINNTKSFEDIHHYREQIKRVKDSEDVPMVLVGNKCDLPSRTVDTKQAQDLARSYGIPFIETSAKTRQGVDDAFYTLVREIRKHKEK
Description: as §1

KRas G12C = KRas G12C (Homo sapiens, UniProt P01116, G12C); assay: biochemical;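 further: binding to KRas assessed by TR-FRET displacement after one hour incubation at room temperature, potency fitted from percent-of-control values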
KRas G12C, sequence (P01116 1-169 isoform P01116-2 G12C): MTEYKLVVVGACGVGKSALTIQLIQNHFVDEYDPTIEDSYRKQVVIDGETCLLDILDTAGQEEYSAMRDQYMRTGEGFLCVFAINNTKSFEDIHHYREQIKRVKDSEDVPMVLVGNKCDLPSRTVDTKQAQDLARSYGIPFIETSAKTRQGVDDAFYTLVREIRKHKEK
Description: as §1

| pIC50 (pERK in ASPC1 cells) | pIC50 (pERK in PSN1 cells) | pIC50 (KRas G12R) | pIC50 (pERK in MKN1 cells) | pIC50 (KRas G12V) | pIC50 (KRas G12D) | pIC50 (KRas G12S) | pIC50 (KRas G12A) | pIC50 (KRas WT) | pIC50 (KRas G12C) | SMILES |
| --- | --- | --- | --- | --- | --- | --- | --- | --- | --- | --- |
| ≤ 5.00 | ≤ 5.00 | 7.29 | ≤ 5.00 | 7.57 | 7.66 |  |  |  |  | CCc1c(F)ccc2cc(O)cc(-c3ncc4c(N5C[C@@H]6C(CO)NC(=O)[C@@H]6C5)nc(OC[C@@]56CCCN5C[C@H](F)C6)nc4c3F)c12 (stereo in doubt) [Example 488, (3R,3aR,6aS)-5-(7-(8-ethyl-7-fluoro-3-hydroxynaphthalen-1-yl)-8-fluoro-2-(((2R,7aS)-2-fluorotetrahydro-1H-pyrrolizin-7a(5H)-yl)methoxy)pyrido[4,3-d]pyrimidin-4-yl)-3-(hydroxymethyl)hexahydropyrrolo[3,4-c]pyrrol-1(2H)-one] |
|  |  | 5.13 |  | 5.47 | 5.62 | 5.53 | 5.56 | 5.53 | 5.50 | O=C1CC2(CCCN(c3nc(OCC45CCCN4CCC5)nc4c(F)c(-c5cccc6cccc(F)c56)ncc34)C2)CN1 (stereo not drawn) [Example 20, 7-(8-fluoro-7-(8-fluoronaphthalen-1-yl)-2-((hexahydro-1H-pyrrolizin-7a-yl)methoxy)pyrido[4,3-d]pyrimidin-4-yl)-2,7-diazaspiro[4.5]decan-3-one] |
|  |  | ≤ 4.00 |  | 4.83 | 4.96 | 4.27 | 4.31 | 4.55 | 4.46 | Fc1c(-c2cccc3cccc(F)c23)ncc2c(Nc3cnc4cnccn34)nc(OCC34CCCN3CCC4)nc12 [Example 34, 8-fluoro-7-(8-fluoronaphthalen-1-yl)-N-(imidazo[1,2-a]pyrazin-3-yl)-2-((tetrahydro-1H-pyrrolizin-7a(5H)-yl)methoxy)pyrido[4,3-d]pyrimidin-4-amine] |
|  |  | 5.52 |  | 5.39 | 5.70 | 5.45 | 5.31 | 5.04 | 5.36 | CNc1cc2n(n1)CCCN(c1nc(OCC34CCCN3CCC4)nc3c(F)c(-c4cccc5cccc(F)c45)ncc13)C2 [Example 263, 5-(8-fluoro-7-(8-fluoronaphthalen-1-yl)-2-((tetrahydro-1H-pyrrolizin-7a(5H)-yl)methoxy)pyrido[4,3-d]pyrimidin-4-yl)-N-methyl-5,6,7,8-tetrahydro-4H-pyrazolo[1,5-a][1,4]diazepin-2-amine] |
|  |  | 5.72 |  | 5.56 | 5.27 | 5.60 | 5.52 | 5.61 | 5.48 | O=C1CC2(CCCN(c3nc(OCC45CCCN4CCC5)nc4c(F)c(-c5cccc6cccc(F)c56)ncc34)C2)C(=O)N1 (stereo not drawn) [Example 265, 7-(8-fluoro-7-(8-fluoronaphthalen-1-yl)-2-((hexahydro-1H-pyrrolizin-7a-yl)methoxy)pyrido[4,3-d]pyrimidin-4-yl)-2,7-diazaspiro[4.5]decane-1,3-dione] |
|  |  | 5.76 |  | 5.77 | 5.36 | 5.68 | 5.60 | 5.81 | 5.65 | O=C1NC(=O)C2(CCCCN(c3nc(OCC45CCCN4CCC5)nc4c(F)c(-c5cccc6cccc(F)c56)ncc34)C2)N1 (stereo not drawn) [Example 267, 7-(8-fluoro-7-(8-fluoronaphthalen-1-yl)-2-((hexahydro-1H-pyrrolizin-7a-yl)methoxy)pyrido[4,3-d]pyrimidin-4-yl)-1,3,7-triazaspiro[4.6]undecane-2,4-dione] |
|  |  | 5.98 |  | 6.00 | 5.72 | 6.14 | 5.98 | 5.97 | 6.22 | OCC1CN(c2nc(OCC34CCCN3CCC4)nc3c(F)c(-c4cccc5cccc(F)c45)ncc23)CCCO1 (stereo not drawn) [Example 269, (4-(8-fluoro-7-(8-fluoronaphthalen-1-yl)-2-((hexahydro-1H-pyrrolizin-7a-yl)methoxy)pyrido[4,3-d]pyrimidin-4-yl)-1,4-oxazepan-2-yl)methanol] |
